From ChEMBL document CHEMBL4619760, “Anti-inflammatory Efficacy of Combined Natural Alkaloid Berberine and S1PR Modulator Fingolimod at Low Doses in Ulcerative Colitis Preclinical Models” (J Nat Prod, 2020)
Calls of active or inactive are those of the source. The rule behind the calls is not given here.

Assays:
Mus musculus [1] = assay: Anti-colitis activity against DSS-induced C57BL/6 mouse model of subchronic relapsing colitis assessed as effect on body weight at 0.3 mg/kg, po administered once daily for 14 days starting from day 5 post DSS-challenge and measured after day 12 to day 18; type: functional, organism-based
Mus musculus [2] = assay: Anti-colitis activity against DSS-induced C57BL/6 mouse model of subchronic relapsing colitis assessed as reduction in stool bleeding scores at 0.3 mg/kg, po administered once daily for 14 days starting from day 5 post DSS challenge and measured on day 19; type: functional, organism-based
Mus musculus [3] = assay: Anti-colitis activity against DSS-induced C57BL/6 mouse model of chronic relapsing colitis assessed as reduction in disease activity index at 0.3 mg/kg, po administered once daily for 30 days starting from day 13 post DSS-challenge and measured on day 43; type: functional, organism-based
Mus musculus [4] = assay: Anti-colitis activity against DSS-induced C57BL/6 mouse model of chronic relapsing colitis assessed as reduction in stool consistency score at 0.15 mg/kg, po administered once daily for 30 days starting from day 13 post DSS-challenge cotreated with 20 mg/kg berberine measured on day 43; type: functional, organism-based
Mus musculus [5] = assay: (§1) Anti-colitis activity against DSS-induced C57BL/6 mouse model of chronic relapsing colitis assessed as reduction in DSS-induced loss of colon crypt and columnar epithelium at 0.3 mg/kg, po administered once daily for 30 days starting from day 13 post DSS-challenge; type: functional, organism-based
Mus musculus [6] = assay: as §1, with “0.15” for “0.3”, “DSS-challenge cotreated with 20 mg/kg berberine by hematoxylin and eosin staining based light microscopic analysis” for “DSS-challenge”; type: functional, organism-based
Mus musculus [7] = assay: Antiinflammatory activity against DSS-induced C57BL/6 mouse model of subchronic relapsing colitis assessed as reduction in IL17 mRNA level at 0.3 mg/kg, po administered once daily for 14 days starting from day 5 post DSS-challenge by RT-qPCR analysis; type: functional, organism-based
Mus musculus [8] = assay: Antiinflammatory activity against DSS-induced C57BL/6 mouse model of subchronic relapsing colitis assessed as reduction in IL6 mRNA level at 0.3 mg/kg, po administered once daily for 14 days starting from day 5 post DSS-challenge by RT-qPCR analysis; type: functional, organism-based
Mus musculus [9] = assay: Antiinflammatory activity against DSS-induced C57BL/6 mouse model of subchronic relapsing colitis assessed as reduction in IL17 mRNA level at 0.15 mg/kg, po administered once daily for 14 days starting from day 5 post DSS-challenge cotreated with 20 mg/kg berberine by RT-qPCR analysis; type: functional, organism-based
Mus musculus [10] = assay: Antiinflammatory activity against DSS-induced C57BL/6 mouse model of subchronic relapsing colitis assessed as reduction in TNFalpha mRNA level at 0.15 mg/kg, po administered once daily for 14 days starting from day 5 post DSS-challenge cotreated with 20 mg/kg berberine by RT-qPCR analysis; type: functional, organism-based
Mus musculus [11] = assay: Antiinflammatory activity against DSS-induced C57BL/6 mouse model of subchronic relapsing colitis assessed as reduction in IL6 mRNA level at 0.15 mg/kg, po administered once daily for 14 days starting from day 5 post DSS-challenge cotreated with 20 mg/kg berberine by RT-qPCR analysis; type: functional, organism-based
Mus musculus [12] = assay: Antiinflammatory activity against DSS-induced C57BL/6 mouse model of subchronic relapsing colitis assessed as reduction in S1PR1 mRNA level at 0.15 mg/kg, po administered once daily for 14 days starting from day 5 post DSS-challenge cotreated with 20 mg/kg berberine by RT-qPCR analysis; type: functional, organism-based
THP-1 [13] = assay: Antiinflammatory activity in human THP1 cells assessed as reduction in LPS-induced IL6 mRNA level at 1 uM incubated for 1 hr followed by LPS challenge and measured after 4 to 6 hrs by q-PCR method; type: functional, cell-based
THP-1 [14] = assay: Antiinflammatory activity in human THP1 cells assessed as reduction in LPS-induced TNFalpha mRNA level at 0.5 uM cotreated with 0.5 uM berberine incubated for 1 hr followed by LPS challenge and measured after 4 to 6 hrs by q-PCR method; type: functional, cell-based
[15] = target: Signal transducer and activator of transcription 3 (Homo sapiens) (UniProt P40763); assay: Inhibition of STAT3 activation in human THP1 cells assessed as reduction in LPS-induced phosphorylated STAT3 expression at 1 uM incubated for 1 hr followed by LPS challenge and measured after 4 to 6 hrs by Western blot analysis; type: cell-based; conditions: THP-1
Chain of Signal transducer and activator of transcription 3 (Homo sapiens) (P40763 whole entry): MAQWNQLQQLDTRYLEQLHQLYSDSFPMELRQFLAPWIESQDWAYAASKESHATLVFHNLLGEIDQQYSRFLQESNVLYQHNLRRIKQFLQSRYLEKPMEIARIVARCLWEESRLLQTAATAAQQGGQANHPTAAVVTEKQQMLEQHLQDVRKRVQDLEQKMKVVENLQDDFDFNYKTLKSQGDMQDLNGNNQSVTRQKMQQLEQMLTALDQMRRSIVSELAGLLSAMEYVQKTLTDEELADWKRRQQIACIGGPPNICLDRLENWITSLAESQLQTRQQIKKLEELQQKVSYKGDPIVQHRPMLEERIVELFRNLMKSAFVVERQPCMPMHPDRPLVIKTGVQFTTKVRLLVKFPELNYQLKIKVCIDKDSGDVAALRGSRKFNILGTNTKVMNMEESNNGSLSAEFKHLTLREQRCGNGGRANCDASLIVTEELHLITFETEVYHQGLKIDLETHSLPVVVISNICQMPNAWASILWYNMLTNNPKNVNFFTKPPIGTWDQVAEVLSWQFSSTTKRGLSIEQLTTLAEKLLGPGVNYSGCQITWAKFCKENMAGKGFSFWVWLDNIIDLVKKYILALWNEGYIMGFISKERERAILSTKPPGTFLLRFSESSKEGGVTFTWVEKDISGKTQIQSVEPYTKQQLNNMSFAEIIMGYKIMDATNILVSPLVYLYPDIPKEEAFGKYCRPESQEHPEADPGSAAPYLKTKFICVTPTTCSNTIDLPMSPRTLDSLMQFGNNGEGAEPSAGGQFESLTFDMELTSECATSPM

For `CCCCCCCCc1ccc(CCC(N)(CO)CO)cc1.Cl` [FINGOLIMOD HYDROCHLORIDE], the Activity (Mus musculus [1]) was “inactive”, the Activity (Mus musculus [2]) was “Active” and the Activity (Mus musculus [3]) was “Active”. For the same compound, the Activity (Mus musculus [4]) was “Active”, the Activity (Mus musculus [5]) was “Active” and the Activity (Mus musculus [6]) was “Active”. For the same compound, the Activity (Mus musculus [7]) was “Active”, the Activity (Mus musculus [8]) was “Active” and the Activity (Mus musculus [9]) was “Active”. The Activity (Mus musculus [10]) was “Active”, the Activity (Mus musculus [11]) was “Active” and the Activity (Mus musculus [12]) was “Active”. The Activity (THP-1 [13]) was “Active”, the Activity (THP-1 [14]) was “Active” and the inhibition [15] was “Active”.
